Test results reported in US11648205B1, “Buccal formulation of avanafil with enhanced bioavailability and prolonged duration” (King Abdulaziz University, priority 2022, dated 2023).
Converted amounts (≈) assume the structure as drawn.

Experiment: Solubility study of AVA-solid dispersions in distilled water
Type: physicochemical
Details: thermodynamic from solid, shaking water bath 48 h
Procedure: A solubility study for the prepared solid dispersions was conducted separately in distilled water, as described previously, with full details published (34). In screw-capped vials, 10 mL of distilled water was placed, and an excess amount of either the pure drug or the prepared solid dispersions was added. The vials were kept in a shaking water bath, for 48 h, in a thermostatically controlled shaking water bath (Model 1031; GFL Corporation, Burgwedel, Germany). Samples from the vial were obtained and were determined in triplicate using spectrophotometric assay at λmax 285 nm, and the data were expressed as the average ± the standard deviation. The AVA-solid dispersion with the highest water solubility was determined and selected for further investigations. Powder X-ray Diffraction (PXRD)

Work on `COc1ccc(CN=c2[nH]c(N3CCC[C@H]3CO)ncc2C(=O)NCc2ncccn2)cc1Cl` [AVA, Avanafil] yielded a solubility at 48 h of 3 µg/mL (≈ 6.2 µM).
